According to a melting point compilation (Tetko et al.):

| SMILES | melting point [°C] |
| --- | --- |
| NNC(=O)c1ccc(COc2cccc3cccnc23)cc1 | 135 to 137 |
| Cc1ccc(Br)c2cccnc12 | 34 to 36 |
| CC1(C)OC(=O)c2c1ccnc2Cl | 158 to 160 |
| FC(F)(F)c1ccc(C2CCCCN2)cc1 (stereo unspecified) | 36 to 38 |
| O=C1CC2(CCCC2)CN1 | 68 to 70 |
| Cc1ncc(CO)c(C)n1 | 52 to 54 |
| Cc1ccc(-n2c(C)nnc2S)cc1 | 98 to 100 |
| COc1cc(F)cc(F)c1S(=O)(=O)Cl | 75 to 77 |
| O=C(c1ccncc1)c1cc(F)ccc1F | 53 to 55 |
| NNc1ccc(S(=O)(=O)N2CCC(Cc3ccccc3)CC2)cn1 | 185 to 187 |
| Nc1ccccc1C(=O)NCC1CCCO1 (stereo unspecified) | 78 to 80 |
| N#Cc1cccc(C2(N)CC2)c1 | 67 to 69 |
| CCS(=O)(=O)NCCC(=O)O | 63 to 65 |
| Fc1ccc(-c2cnc(C3CCNCC3)[nH]2)cc1F | 187 to 189 |
| CC(C)c1ccc(N2Cc3ccc(N)cc3C2)cc1 | 164 to 166 |
| Nc1ccc(S(=O)(=O)N2CCCCCC2)cc1 | 105 to 107 |
| NCC(Cc1ccc(F)cc1)C(N)=O (stereo unspecified) | 119 to 121 |
| O=c1c2sccc2nc(S)n1Cc1ccccc1 | 249 to 251 |
| Nc1ccccc1NC(=O)c1ccncc1 | 179 to 181 |
| OC(CCc1ccccc1)CCc1ccccc1 | 44 to 46 |
| Cc1ccc(Nc2snc(O)c2C#N)cc1 | 232 to 234 |
| NC(=O)NC(CCC(=O)O)C(=O)O (stereo unspecified) | 161 to 163 |
| O=C(CC(=O)c1ccccc1)Nc1ccccc1 | 107 to 109 |
| CCOc1ccc(-c2csc(N)n2)cc1 | 248 to 250 |
| CC(C)NC(=O)CN(C)CC(N)=S | 140 to 142 |
| COc1ccc(S(=O)(=O)N2CCN(C)CC2)cc1N | 107 to 109 |

| SMILES | melting point [°C] |
| --- | --- |
| CC(C)c1cc(Br)cc([N+](=O)[O-])c1N | 39 to 41 |
| Cc1c(Cl)nc(N(C)C)nc1Cl | 54 to 56 |
| Cc1csc(C(O)C(F)(F)F)n1 (stereo unspecified) | 122 to 124 |
| O=[N+]([O-])c1cccc(-c2nccs2)c1 | 238 to 240 |
| O=C1c2ccccc2C(=O)N1C1CCC(O)CC1 (stereo unspecified) | 174 to 176 |
| COc1cc2c(cc1OC)S(=O)(=O)NC2=O | 279 to 281 |
| N#Cc1ccc(N2CCNC(=O)C2)cc1 | 224 to 226 |
| Cc1ccc(-c2nnc(S)o2)cc1 | 266 to 268 |
| O=C(COc1ccc2c(c1)CCC2)c1ccc(Cl)c(Cl)c1 | 89 to 91 |
| CCn1cc(S(=O)(=O)Cl)c([N+](=O)[O-])n1 | 45 to 47 |
| COc1ccc(C(=O)NN)c(OC)c1 | 112 to 114 |
| CC1(C)NC(=O)N=C1N | 259 to 261 |
| Nc1ccccc1-c1ncc[nH]1 | 132 to 134 |
| CCNC1CCc2[nH]c3ccc(Cl)cc3c2C1 (stereo unspecified) | 174 to 176 |
| Cc1nn(Cc2cccc(Cl)c2)cc1C(=O)O | 167 to 169 |
| COc1ccc2cc(C=CC#N)ccc2c1 | 124 to 126 |
| CCCc1cc(=O)[nH]c(CCC)n1 | 69 to 71 |
| COc1ccccc1S(N)(=O)=O | 169 to 171 |
| NCCC(=O)Nc1ccc(C(N)=O)c(Cl)c1 | 264 to 266 |
| CC1CCCCN1Cc1ccc(N)cc1 (stereo unspecified) | 54 to 56 |
| O=C1NC(=O)C(F)(F)c2ccccc21 | 109 to 111 |
| CC(Nc1ccccn1)c1ccco1 (stereo unspecified) | 136 to 138 |
| Nc1nsc(N2CCCC2)n1 | 244 to 246 |
| Cc1nc(N)c(I)cc1Br | 135 to 137 |
| Cc1csc(-c2cnc(C)[nH]c2=O)n1 | 302 to 304 |
| Cc1cc(S)n2c(nc3ccccc32)c1C#N | 198 to 200 |

| SMILES | melting point [°C] |
| --- | --- |
| Nc1cc(NC(=O)Cn2cccnc2=O)ccc1F | 251 to 253 |
| Cc1ccc(Nc2nnc(S)s2)cc1C | 181 to 183 |
| Nc1ccc(-n2nccn2)cc1C(F)(F)F | 84 to 86 |
| Cc1nc(NC(=O)NN)no1 | 288 to 290 |
| CS(=O)(=O)c1ccc(OCCN)cc1 | 63 to 65 |
| Cc1nn(C)c2[nH]nc(N)c12 | 135 to 137 |
| Nc1nnc(-c2ccc(Br)cc2)[nH]1 | 214 to 216 |
| ClCc1ncn(-c2ccccc2)n1 | 83 to 85 |
| Nc1ccc(Br)cc1O | 138 to 140 |
| CCCc1nonc1N | 29 to 31 |
| COc1ccc(NC(=O)C2(N)CCCC2)cc1OC | 116 to 118 |
| CCOC(=O)c1sc(-c2cccc(Br)c2)cc1N | 97 to 99 |
| Nc1cccc(N2C(=O)CNC2=O)c1 | 156 to 158 |
| COc1cc(F)c(C(C)=O)cc1OC | 92 to 94 |
| Clc1ccc(NCCc2ccccc2)nn1 | 159 to 161 |
| N#Cc1ccc(S)cc1C(F)(F)F | 71 to 73 |
| Cc1cc(C(=O)NN)c(C)n1-c1ccc(F)cc1 | 160 to 162 |
| Clc1ccc(CNC2=NCCS2)cc1 | 106 to 108 |
| CCCn1cc(C(=O)O)c2ccccc21 | 155 to 157 |
| COc1ccc(N)cc1OCc1ccncc1 | 116 to 118 |
| Fc1ccc(Oc2ccc(Cl)nn2)c(F)c1 | 113 to 115 |
| Clc1cccc2c(CBr)csc12 | 84 to 86 |
| O=C1CC(c2ccccc2)=NN1c1ccccc1Br | 183 to 185 |
| CCOC(=O)c1nc(NCCc2ccccc2)sc1C | 109 to 111 |
| N#CCN1CCCC2CCCCC21 (stereo unspecified) | 42 to 44 |
| O=c1[nH]c(-c2ccc(Cl)s2)nc2c1CCC2 | 276 to 278 |

The remaining lines, values ahead:

| melting point [°C] | SMILES |
| --- | --- |
| 252 to 254 | O=C(O)c1cccc(NC(=O)C2Cc3ccccc3O2)c1 (stereo unspecified) |
| 183 to 185 | CC(O)C(NS(=O)(=O)c1cccs1)C(=O)O (stereo unspecified) |
| 190 to 192 | O=C(O)c1cccnc1Oc1cccnc1 |
| 184 to 186 | COc1ccc(Nc2ccccc2C(=O)O)cc1 |
| 99 to 101 | CNc1scnc1C(=O)O |
| 167 to 169 | Cc1nnnn1C(Cc1ccccc1)C(=O)O (stereo unspecified) |
| 213 to 215 | CCOC(=O)c1sc2ncc(C(=O)OC)cc2c1N |
| 171 to 173 | O=C(O)c1ccc(F)cc1S |
| 219 to 221 | CN1CCCC[C@@H]1C(=O)O |
| 167 to 169 | O=C(O)c1c(Cl)nc2ccccc2c1Cl |
| 173 to 175 | CC(=O)N1Cc2ccccc2CC1C(=O)O (stereo unspecified) |
| 91 to 93 | CC(C)(C(=O)O)c1cccc(C#N)c1 |
| 107 to 109 | CCN1N=C(C)CC1=O |
| 111 to 113 | COc1cccc(CNC(N)=O)c1 |
| 174 to 176 | COc1ccc(NC(=O)NCCC(=O)O)cc1 |
| 162 to 164 | NS(=O)(=O)c1cnn(-c2cccc(C(F)(F)F)c2)c1 |
| 205 to 207 | O=C(O)c1ccc(NC(=O)C2CC2)s1 |
| 202 to 204 | O=C(O)c1cc2ccccc2c(Cl)n1 |
| 171 to 173 | O=C(O)CCNc1nccs1 |
| 59 to 61 | CC(NC(=O)OC(C)(C)C)C(=O)Cc1ccccc1 (stereo unspecified) |
| 135 to 137 | CSc1nc(C(=O)O)cc(C2CC2)n1 |
| 229 to 231 | Cc1cc(C=CC(=O)O)cnc1N |
| 188 to 190 | O=C(O)C(F)(F)c1c[nH]c(=O)[nH]c1=O |

| melting point [°C] | SMILES |
| --- | --- |
| 96 to 98 | CN(C)C(=O)c1ccc(Cl)c(NC(=O)OCC(F)(F)F)c1 |
| 152 to 154 | COc1ccc2c(c1)OCC(C(=O)O)C2 (stereo unspecified) |
| 116 to 118 | CN(C)Cc1ccc(C(=O)NN)o1 |
| 128 to 130 | NNC(=O)c1ccoc1 |
| 159 to 161 | Cn1cnn(-c2ccc(N)cc2)c1=O |
| 89 to 91 | Nc1cnn(-c2nccs2)c1 |
| 166 to 168 | O=C(O)C1CCN(S(=O)(=O)c2ccc(Br)s2)CC1 |
| 55 to 57 | COC(=O)c1cc(Cl)ccn1 |
| 88 to 90 | N#Cc1ccccc1CN1CCCC1C(N)=O (stereo unspecified) |
| 289 to 291 | O=C1CCCc2[nH]c(=O)c(C(=O)O)cc21 |
| 182 to 184 | NC(=NO)c1cnccn1 |
| 161 to 163 | Cc1ccc(NC(=O)NCC2CCCNC2)cc1 (stereo unspecified) |
| 166 to 168 | CC1C=CC2C(=O)N(CC(F)(F)F)C(=O)C2C1C(=O)O (stereo unspecified) |
| 145 to 147 | Cc1c(N=C=S)c(=O)n(-c2ccccc2)n1C |
| 150 to 152 | CCNC(=O)NC(C)(C)C(=O)O |
| 144 to 146 | CCn1cc(C(=O)O)cn1 |
| 209 to 211 | COc1ccc(-c2cc(C(=O)O)[nH]n2)cc1 |
| 187 to 189 | Cc1nc(C(=O)O)c2ccccn12 |
| 261 to 263 | O=C(O)c1[nH]nc2cc(OC(F)(F)F)ccc12 |
| 99 to 101 | CCOC(=O)c1nc(-c2ccc(Cl)c(Cl)c2)oc1C |
| 194 to 196 | CCOC(=O)c1nc2cc(Cl)ncn2n1 |
| 217 to 219 | O=C(O)Cn1cn[nH]c1=O |
| 218 to 220 | Cn1cc(Nc2cccc(C(=O)O)c2)cn1 |

| melting point [°C] | SMILES |
| --- | --- |
| 198 to 200 | CS(=O)(=O)Nc1ccc(C(=O)O)cc1 |
| 104 to 106 | CC(=O)c1cccc(N2C(=O)C=CC2=O)c1 |
| 191 to 193 | COC(=O)c1sc2ncccc2c1N |
| 58 to 60 | O=Cc1cccc(OCCCC(=O)O)c1 |
| 209 to 211 | O=C(O)CCSc1ccnc2cc(Cl)ccc12 |
| 246 to 250 | CNS(=O)(=O)c1ccc(C(=O)O)cc1 |
| 203 to 205 | Cn1cc(C(=O)O)cn1 |
| 209 to 211 | O=C(O)c1ccc(OCc2ccccn2)cc1 |
| 218 to 222 | COc1cc2c(cc1OC)C(c1ccccc1)N(C(=O)CCl)CC2 (stereo unspecified) |
| 147 to 149 | COc1ccsc1C(N)=O |
| 123 to 125 | Nc1c(C(=O)N2CCOCC2)oc2ccccc12 |
| 186 to 188 | O=C(O)CSc1ncnc2scc(-c3ccccc3)c12 |
| 119 to 121 | CC(C)(C)OC(=O)N1CCN(C(=O)C2CCCNC2)CC1 (stereo unspecified) |
| 200 to 202 | O=C(O)c1ccc(OCC(F)(F)F)cc1 |
| 56 to 58 | Cc1ccc(C)c(OCCCCC(=O)O)c1 |
| 296 to 298 | Cc1[nH]c(=O)c(C(=O)O)cc1-c1ccc(O)cc1 |
| 98 to 102 | O=C(O)Cc1cc(=O)n(-c2ccccc2)[nH]1 |
| 101 to 103 | CCC(CC)C(=O)N1CCC(=NO)CC1 |
| 189 to 191 | O=Cc1ccc(OCCn2cc(C(=O)O)nn2)c(Cl)c1 |
| 184 to 186 | Cn1cnc(-c2cccc(N)c2)n1 |
| 194 to 196 | COC(=O)c1ccc(C(=O)O)s1 |
| 78 to 80 | CSCc1cccc(C(=O)O)c1 |
